The values below come from ChEMBL document CHEMBL1687711.

Test [1] deals with Aspergillus fumigatus. As to the kind of experiment: Antifungal activity against Aspergillus fumigatus AF4215 hyphae co-incubated with human monocytes assessed as hyphal damage at 0.1 ug/ml after 20 hrs by XTT assay. The test is classed as functional, organism-based.
The test system of test [2] is Aspergillus fumigatus. Put plainly: Antifungal activity against Aspergillus fumigatus AF4215 hyphae assessed as hyphal damage at 0.1 ug/ml after 20 hrs by XTT assay. It is filed as functional, organism-based.
The test system of test [3] is Aspergillus fumigatus. Put plainly: Antifungal activity against Aspergillus fumigatus AF4215 hyphae co-incubated with monocytes assessed as hyphal damage at 0.1 ug/ml after 6 hrs by XTT assay. It is filed as functional, organism-based.
In test [4] the test system is Aspergillus fumigatus. As to the kind of experiment: Antifungal activity against Aspergillus fumigatus AF4215 hyphae co-incubated with human THP1 cells assessed as hyphal damage at 0.1 ug/ml after 6 hrs by XTT assay. It is filed as functional, organism-based. The conditions noted are these: THP-1.
In test [5] the test system is THP-1. Put plainly: Increase in NF-kappaB-mediated TLR2 mRNA expression in human THP1 cells co-incubated with Aspergillus fumigatus hyphae at 0.5 ug/ml after 6 hrs by RT-PCR analysis. The test is classed as cell-based.
The subject of test [6] is THP-1. Put plainly: Increase in NF-kappaB-mediated TLR2 mRNA expression in human THP1 cells at 0.5 ug/ml after 6 hrs by RT-PCR analysis. The test is classed as cell-based.
Test [7] relates to THP-1. Put plainly: Effect on TLR4 mRNA expression in human THP1 cells co-incubated with Aspergillus fumigatus hyphae at 0.5 ug/ml after 6 hrs by RT-PCR analysis. The test is classed as functional, cell-based.
In test [8] the test system is THP-1. As to the kind of experiment: Effect on TLR4 mRNA expression in human THP1 cells at 0.5 ug/ml after 6 hrs by RT-PCR analysis. The test is classed as functional, cell-based.
Test [9] has as its system THP-1. Put plainly: Increase in NF-kappaB-mediated TNF-alpha mRNA expression in human THP1 cells co-incubated with Aspergillus fumigatus hyphae at 0.5 ug/ml after 6 hrs by RT-PCR analysis. It is filed as cell-based.
Test [10] relates to THP-1. As to the kind of experiment: Increase in NF-kappaB-mediated TNF-alpha mRNA expression in human THP1 cells at 0.5 ug/ml after 6 hrs by RT-PCR analysis. It is filed as cell-based.
In test [11] the test system is THP-1. Put plainly: Increase in NF-kappaB-mediated TLR2 protein expression in human THP1 cells co-incubated with Aspergillus fumigatus hyphae at 0.5 ug/ml after 6 hrs by Western blot analysis. It is filed as cell-based.
For test [12], the system named is THP-1. Put plainly: Increase in NF-kappaB-mediated TLR2 protein expression in human THP1 cells at 0.5 ug/ml after 6 hrs by Western blot analysis. It is filed as cell-based.
In test [13] the test system is THP-1. As to the kind of experiment: Effect on TLR4 protein expression in human THP1 cells co-incubated with Aspergillus fumigatus hyphae at 0.5 ug/ml after 6 hrs by Western blot analysis. The test is classed as functional, cell-based. (A western blot detects proteins with antibodies after separation by electrophoresis.)
In test [14] the test system is THP-1. As to the kind of experiment: Effect on TLR4 protein expression in human THP1 cells at 0.5 ug/ml after 6 hrs by Western blot analysis. The test is classed as functional, cell-based.

Each structure is given as a SMILES string. The source made the active and inactive calls. No cut-off for these calls is given here.

In the case of `C[C@@H](c1ncncc1F)[C@](O)(Cn1cncn1)c1ccc(F)cc1F`, the result with Aspergillus fumigatus [1], in the test with Aspergillus fumigatus [2], in the test with Aspergillus fumigatus [3], with Aspergillus fumigatus [4], with THP-1 [5] and with THP-1 [6] was Active. The result with THP-1 [9], in the test with THP-1 [10], with THP-1 [11] and in the test on THP-1 [12] was Active. The result in the test with THP-1 [7], in the test with THP-1 [8], with THP-1 [13] and in the test on THP-1 [14] was inactive.
